Source: patent publication US12421232B2, “Kinase inhibitor compounds and compositions and methods of use” (ICAHN SCHOOL OF MEDICINE AT MOUNT SINAI, priority 2018, dated 2025)
Where two headings read alike, the source gives them in different places.

What was measured:
Assay in all cases: KINOMEscan Assay (DiscoverX)
Assay type in all cases: binding
HASPIN = target: T1, HASPIN (Homo sapiens, UniProt Q8TF76); conditions: read-out: % DMSO Ctrl
T1 construct: purchased DiscoverX
T1 sequence (Q8TF76 1-798): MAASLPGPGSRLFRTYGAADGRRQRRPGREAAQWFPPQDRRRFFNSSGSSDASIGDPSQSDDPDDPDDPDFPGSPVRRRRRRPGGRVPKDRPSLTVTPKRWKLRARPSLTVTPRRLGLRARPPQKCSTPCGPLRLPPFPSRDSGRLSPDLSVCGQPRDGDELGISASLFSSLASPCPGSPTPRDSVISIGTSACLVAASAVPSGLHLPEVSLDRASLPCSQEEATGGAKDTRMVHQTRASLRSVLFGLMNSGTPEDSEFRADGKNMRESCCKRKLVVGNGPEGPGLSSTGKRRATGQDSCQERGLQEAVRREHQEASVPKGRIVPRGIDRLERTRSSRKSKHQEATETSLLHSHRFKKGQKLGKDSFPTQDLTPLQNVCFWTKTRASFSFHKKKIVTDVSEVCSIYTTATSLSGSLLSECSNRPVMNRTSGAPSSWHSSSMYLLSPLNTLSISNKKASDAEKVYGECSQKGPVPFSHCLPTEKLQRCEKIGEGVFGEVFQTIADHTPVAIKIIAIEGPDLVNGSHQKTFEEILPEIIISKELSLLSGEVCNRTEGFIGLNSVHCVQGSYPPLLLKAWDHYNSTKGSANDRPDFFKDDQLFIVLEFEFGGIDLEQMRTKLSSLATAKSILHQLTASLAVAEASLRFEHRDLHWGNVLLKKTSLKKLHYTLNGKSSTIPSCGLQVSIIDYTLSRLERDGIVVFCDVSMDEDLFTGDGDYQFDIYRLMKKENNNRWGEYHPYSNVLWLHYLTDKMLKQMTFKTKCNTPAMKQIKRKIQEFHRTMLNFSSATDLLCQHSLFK

IRAK3 = target: T2, IRAK3 (Homo sapiens, UniProt Q9Y616); conditions: read-out: % DMSO Ctrl
T2 construct: purchased DiscoverX
T2 sequence (Q9Y616 1-596): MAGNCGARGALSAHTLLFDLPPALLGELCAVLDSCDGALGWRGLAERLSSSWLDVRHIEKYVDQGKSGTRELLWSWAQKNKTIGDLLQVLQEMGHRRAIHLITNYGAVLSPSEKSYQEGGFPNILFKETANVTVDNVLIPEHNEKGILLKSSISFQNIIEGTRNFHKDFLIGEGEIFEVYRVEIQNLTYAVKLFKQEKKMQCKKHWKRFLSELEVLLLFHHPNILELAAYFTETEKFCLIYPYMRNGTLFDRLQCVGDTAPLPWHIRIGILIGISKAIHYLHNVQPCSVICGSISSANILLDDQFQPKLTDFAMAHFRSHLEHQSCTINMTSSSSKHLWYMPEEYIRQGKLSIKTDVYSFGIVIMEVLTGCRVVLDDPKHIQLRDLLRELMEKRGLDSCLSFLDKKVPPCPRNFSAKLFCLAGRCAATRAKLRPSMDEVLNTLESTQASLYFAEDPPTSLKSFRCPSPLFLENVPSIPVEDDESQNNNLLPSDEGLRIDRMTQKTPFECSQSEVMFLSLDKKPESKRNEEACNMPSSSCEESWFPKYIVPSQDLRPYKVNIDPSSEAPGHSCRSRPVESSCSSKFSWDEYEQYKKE

PIM1 = target: T3, PIM1 (Homo sapiens, UniProt P11309); conditions: read-out: % DMSO Ctrl
T3 construct: purchased DiscoverX
T3 sequence (P11309 whole entry): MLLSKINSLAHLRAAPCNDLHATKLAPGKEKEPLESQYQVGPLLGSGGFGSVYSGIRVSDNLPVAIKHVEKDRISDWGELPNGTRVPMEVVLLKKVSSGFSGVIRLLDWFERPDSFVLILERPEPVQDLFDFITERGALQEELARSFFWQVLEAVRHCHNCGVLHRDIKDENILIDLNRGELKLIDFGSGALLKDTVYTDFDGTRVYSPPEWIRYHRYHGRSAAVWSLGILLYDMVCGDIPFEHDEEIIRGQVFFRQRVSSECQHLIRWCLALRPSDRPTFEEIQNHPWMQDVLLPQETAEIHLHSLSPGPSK

PIM3 = target: T4, PIM3 (Homo sapiens, UniProt Q86V86); conditions: read-out: % DMSO Ctrl
T4 construct: purchased DiscoverX

ROCK1 = target: T5, ROCK1 (Homo sapiens, UniProt Q13464); conditions: read-out: % DMSO Ctrl
T5 construct: purchased DiscoverX
T5 sequence (Q13464 whole entry): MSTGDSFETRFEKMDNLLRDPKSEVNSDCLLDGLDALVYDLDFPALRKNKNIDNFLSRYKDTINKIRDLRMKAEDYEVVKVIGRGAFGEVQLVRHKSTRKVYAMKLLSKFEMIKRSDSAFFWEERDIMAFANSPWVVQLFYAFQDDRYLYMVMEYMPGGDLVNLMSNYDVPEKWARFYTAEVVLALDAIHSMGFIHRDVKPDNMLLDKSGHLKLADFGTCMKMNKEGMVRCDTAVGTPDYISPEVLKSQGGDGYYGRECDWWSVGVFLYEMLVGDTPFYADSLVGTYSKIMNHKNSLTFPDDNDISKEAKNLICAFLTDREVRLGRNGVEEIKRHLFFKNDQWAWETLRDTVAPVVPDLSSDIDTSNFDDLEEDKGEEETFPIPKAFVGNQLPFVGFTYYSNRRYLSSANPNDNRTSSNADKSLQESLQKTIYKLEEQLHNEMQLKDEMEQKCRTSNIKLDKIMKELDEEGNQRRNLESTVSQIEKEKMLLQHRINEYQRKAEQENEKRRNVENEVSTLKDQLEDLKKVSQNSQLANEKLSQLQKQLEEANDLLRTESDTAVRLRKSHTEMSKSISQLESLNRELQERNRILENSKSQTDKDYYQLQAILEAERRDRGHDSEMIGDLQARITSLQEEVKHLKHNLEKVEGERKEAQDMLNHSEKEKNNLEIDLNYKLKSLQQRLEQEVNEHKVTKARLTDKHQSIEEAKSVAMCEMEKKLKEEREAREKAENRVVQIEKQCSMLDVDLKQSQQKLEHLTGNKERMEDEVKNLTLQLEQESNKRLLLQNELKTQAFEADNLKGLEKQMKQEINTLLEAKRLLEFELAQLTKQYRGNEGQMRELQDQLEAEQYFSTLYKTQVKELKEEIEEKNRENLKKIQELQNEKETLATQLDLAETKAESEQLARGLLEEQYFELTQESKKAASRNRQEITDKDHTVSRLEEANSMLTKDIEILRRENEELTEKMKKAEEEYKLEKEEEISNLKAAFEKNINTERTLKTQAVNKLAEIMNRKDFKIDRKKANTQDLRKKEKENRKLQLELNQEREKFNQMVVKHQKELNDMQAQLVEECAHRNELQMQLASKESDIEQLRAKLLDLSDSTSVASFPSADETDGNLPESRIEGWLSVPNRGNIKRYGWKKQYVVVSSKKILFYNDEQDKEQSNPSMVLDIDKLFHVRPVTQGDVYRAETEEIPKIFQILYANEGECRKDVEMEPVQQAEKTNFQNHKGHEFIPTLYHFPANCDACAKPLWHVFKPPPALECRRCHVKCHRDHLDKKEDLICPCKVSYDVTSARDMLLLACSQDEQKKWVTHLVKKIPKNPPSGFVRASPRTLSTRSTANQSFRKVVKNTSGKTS

FLT3(ITD) = FLT3(ITD) mutant; 10 μM
KIT(V559D,V654A) = target: T6, KIT(V559D,V654A) (Homo sapiens, UniProt P10721, V559D/V654A); conditions: read-out: % DMSO Ctrl
T6 construct: purchased DiscoverX
T6 sequence (P10721 26-976 V559D/V654A): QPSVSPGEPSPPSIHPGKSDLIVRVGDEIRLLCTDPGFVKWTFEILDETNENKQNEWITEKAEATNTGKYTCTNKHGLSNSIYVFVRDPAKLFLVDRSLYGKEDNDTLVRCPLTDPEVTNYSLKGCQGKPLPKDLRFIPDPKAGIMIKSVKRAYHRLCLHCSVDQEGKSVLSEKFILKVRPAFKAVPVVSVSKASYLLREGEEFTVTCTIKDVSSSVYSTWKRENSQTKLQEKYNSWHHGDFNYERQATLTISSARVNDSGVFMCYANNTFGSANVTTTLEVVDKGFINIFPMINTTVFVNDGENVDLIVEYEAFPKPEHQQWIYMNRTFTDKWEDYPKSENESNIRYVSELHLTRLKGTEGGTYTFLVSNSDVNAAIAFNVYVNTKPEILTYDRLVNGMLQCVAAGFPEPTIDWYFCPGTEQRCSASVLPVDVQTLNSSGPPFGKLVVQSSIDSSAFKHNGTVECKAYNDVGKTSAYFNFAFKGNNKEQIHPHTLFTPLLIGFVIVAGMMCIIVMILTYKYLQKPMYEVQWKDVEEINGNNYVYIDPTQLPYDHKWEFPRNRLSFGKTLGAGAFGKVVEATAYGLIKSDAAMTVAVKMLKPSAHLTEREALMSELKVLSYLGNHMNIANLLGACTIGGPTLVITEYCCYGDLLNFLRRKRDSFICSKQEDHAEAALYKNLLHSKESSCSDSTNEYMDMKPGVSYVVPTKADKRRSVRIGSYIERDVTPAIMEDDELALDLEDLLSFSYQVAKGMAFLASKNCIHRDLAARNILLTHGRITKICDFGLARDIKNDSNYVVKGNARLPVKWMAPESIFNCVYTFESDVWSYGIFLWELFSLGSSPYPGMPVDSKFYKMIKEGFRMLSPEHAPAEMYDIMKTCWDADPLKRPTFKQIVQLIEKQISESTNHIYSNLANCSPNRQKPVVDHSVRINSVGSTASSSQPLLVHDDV

PDGFRB = target: T7, PDGFRB (Homo sapiens, UniProt P09619); conditions: read-out: % DMSO Ctrl
T7 construct: purchased DiscoverX
T7 sequence (P09619 33-1106): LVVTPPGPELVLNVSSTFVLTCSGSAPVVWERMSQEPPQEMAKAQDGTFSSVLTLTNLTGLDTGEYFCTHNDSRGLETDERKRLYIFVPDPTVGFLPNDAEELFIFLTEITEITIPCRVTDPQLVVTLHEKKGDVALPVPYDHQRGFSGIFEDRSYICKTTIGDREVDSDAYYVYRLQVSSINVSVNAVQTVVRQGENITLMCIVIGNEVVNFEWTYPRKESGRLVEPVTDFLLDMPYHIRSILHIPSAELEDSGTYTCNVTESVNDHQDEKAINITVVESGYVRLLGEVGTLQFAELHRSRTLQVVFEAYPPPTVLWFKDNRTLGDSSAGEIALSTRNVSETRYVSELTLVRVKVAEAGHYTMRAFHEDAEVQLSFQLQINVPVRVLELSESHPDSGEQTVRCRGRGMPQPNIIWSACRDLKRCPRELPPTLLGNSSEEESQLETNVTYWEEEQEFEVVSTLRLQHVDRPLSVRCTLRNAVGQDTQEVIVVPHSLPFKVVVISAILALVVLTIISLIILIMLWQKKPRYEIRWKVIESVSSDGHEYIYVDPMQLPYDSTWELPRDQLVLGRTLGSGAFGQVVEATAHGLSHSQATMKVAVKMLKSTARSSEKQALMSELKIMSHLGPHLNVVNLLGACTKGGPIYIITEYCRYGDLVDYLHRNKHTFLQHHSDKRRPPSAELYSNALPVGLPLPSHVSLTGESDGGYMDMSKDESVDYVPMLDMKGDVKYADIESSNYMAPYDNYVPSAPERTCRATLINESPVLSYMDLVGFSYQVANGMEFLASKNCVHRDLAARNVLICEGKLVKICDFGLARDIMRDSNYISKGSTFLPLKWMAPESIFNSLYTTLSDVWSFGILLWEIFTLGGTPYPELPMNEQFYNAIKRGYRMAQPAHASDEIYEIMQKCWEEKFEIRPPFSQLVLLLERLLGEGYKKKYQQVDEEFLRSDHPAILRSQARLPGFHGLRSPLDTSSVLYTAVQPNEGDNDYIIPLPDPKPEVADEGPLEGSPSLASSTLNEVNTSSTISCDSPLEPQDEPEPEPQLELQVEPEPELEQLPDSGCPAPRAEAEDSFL

PIK3CA(I800L) = target: T8, PIK3CA(I800L) (Homo sapiens, UniProt P42336, I800L); conditions: read-out: % DMSO Ctrl
T8 construct: purchased DiscoverX
T8 sequence (P42336 whole entry I800L): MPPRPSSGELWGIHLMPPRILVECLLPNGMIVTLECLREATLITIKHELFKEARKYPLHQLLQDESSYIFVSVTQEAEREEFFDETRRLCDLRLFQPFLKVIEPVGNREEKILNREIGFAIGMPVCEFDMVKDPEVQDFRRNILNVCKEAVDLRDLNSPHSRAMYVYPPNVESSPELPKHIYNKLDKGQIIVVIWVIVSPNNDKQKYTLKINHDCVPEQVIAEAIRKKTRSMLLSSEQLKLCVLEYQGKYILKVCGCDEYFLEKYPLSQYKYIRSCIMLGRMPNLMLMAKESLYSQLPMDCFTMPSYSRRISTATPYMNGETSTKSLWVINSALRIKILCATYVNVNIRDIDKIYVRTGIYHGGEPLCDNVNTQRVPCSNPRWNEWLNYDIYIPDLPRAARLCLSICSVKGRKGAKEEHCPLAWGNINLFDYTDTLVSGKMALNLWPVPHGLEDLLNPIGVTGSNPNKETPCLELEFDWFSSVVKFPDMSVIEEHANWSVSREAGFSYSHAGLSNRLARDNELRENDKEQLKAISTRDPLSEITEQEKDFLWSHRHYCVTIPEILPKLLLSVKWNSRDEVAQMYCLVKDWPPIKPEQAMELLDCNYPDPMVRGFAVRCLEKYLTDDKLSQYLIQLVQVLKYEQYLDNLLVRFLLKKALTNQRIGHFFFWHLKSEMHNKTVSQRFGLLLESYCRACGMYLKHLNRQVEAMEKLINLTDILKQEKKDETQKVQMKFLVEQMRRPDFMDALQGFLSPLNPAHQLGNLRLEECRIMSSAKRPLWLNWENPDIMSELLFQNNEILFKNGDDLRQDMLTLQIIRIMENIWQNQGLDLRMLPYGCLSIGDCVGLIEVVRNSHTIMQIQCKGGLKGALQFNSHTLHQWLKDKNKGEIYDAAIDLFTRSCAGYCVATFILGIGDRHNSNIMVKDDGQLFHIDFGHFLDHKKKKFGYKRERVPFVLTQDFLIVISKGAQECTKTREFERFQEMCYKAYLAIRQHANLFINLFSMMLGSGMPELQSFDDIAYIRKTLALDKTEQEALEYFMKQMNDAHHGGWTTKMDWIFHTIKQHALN

PIP5K2C = target: T9, PIP5K2C (Homo sapiens, UniProt Q8TBX8); conditions: read-out: % DMSO Ctrl
T9 construct: purchased DiscoverX
T9 sequence (Q8TBX8 1-421): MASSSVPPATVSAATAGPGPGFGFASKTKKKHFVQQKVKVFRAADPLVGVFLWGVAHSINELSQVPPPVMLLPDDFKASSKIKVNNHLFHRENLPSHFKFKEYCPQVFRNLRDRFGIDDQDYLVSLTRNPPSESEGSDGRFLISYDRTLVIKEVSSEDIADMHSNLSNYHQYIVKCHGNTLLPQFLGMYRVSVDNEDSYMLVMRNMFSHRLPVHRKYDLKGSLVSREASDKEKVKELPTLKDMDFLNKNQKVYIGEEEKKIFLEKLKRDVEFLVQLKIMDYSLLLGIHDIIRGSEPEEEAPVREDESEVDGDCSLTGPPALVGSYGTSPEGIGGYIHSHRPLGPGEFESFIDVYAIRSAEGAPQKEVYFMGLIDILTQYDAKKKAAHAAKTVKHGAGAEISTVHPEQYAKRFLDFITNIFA

SGK = target: T10, SGK (Homo sapiens, UniProt O00141); conditions: read-out: % DMSO Ctrl
T10 construct: purchased DiscoverX
T10 sequence (O00141 1-431): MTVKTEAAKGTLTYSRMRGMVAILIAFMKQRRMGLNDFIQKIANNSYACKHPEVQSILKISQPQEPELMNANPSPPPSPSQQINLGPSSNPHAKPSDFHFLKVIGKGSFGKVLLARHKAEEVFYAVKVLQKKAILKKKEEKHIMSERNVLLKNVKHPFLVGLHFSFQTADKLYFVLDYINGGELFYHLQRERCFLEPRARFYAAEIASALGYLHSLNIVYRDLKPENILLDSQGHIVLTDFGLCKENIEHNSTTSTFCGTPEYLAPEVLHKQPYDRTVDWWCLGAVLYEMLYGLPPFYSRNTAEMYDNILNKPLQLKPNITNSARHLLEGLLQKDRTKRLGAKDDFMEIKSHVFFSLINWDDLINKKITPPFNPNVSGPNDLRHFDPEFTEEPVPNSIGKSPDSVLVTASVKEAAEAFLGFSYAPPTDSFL

| Structure (SMILES) | remaining binding at 10 µM (HASPIN) | remaining binding at 10 µM (IRAK3) | remaining binding at 10 µM (PIM1) | remaining binding at 10 µM (PIM3) | remaining binding at 10 µM (ROCK1) | % DMSO Ctrl (FLT3(ITD)) | remaining binding at 10 µM (IRAK3; IRAK3, 10 μM) | remaining binding at 10 µM (KIT(V559D,V654A)) | remaining binding at 10 µM (PDGFRB) | remaining binding at 10 µM (PIK3CA(I800L)) | remaining binding at 10 µM (PIM1; PIM1, 10 μM) | remaining binding at 10 µM (PIM3; PIM3, 10 μM) | remaining binding at 10 µM (PIP5K2C) | remaining binding at 10 µM (ROCK1; ROCK1, 10 μM) | remaining binding at 10 µM (SGK) | remaining binding at 10 µM (KIT(V559D,V654A); KIT(V559D,V654A) mutant, 10 μM) | remaining binding at 10 µM (PDGFRB; PDGFRB, 10 μM) | remaining binding at 10 µM (PIK3CA(I800L); PIK3CA(I800L) mutant, 10 μM) | remaining binding at 10 µM (PIP5K2C; PIP5K2C, 10 μM) | remaining binding at 10 µM (SGK; SGK, 10 μM) |
| --- | --- | --- | --- | --- | --- | --- | --- | --- | --- | --- | --- | --- | --- | --- | --- | --- | --- | --- | --- | --- |
| COc1ccc2c(c1)[nH]c1c(C)nccc12 [Harmine, reference compound] | 2% | 35% | 45% | 43% | 26% |  |  |  |  |  |  |  |  |  |  |  |  |  |  |  |
| C#CCn1c2cc(OC)ccc2c2ccnc(C)c21 [Compound 20-23a, 3-(7-Methoxy-1-methyl-β-carbolin-9-yl)-propan-1-yne] | 1.7% |  |  |  |  | 61 % DMSO Ctrl | 34% | 100% | 77% | 73% | 26% | 32% | 41% | 9.2% | 63% |  |  |  |  |  |
| COc1ccc2c3ccnc(C)c3n(CCCc3noc(N)n3)c2c1 [Compound 20-13, 3-(3-(7-Methoxy-1-methyl-β-carbolin-9-yl)propyl)-5-amino-1,2,4-oxadiazole] | 0.35% | 62% | 28% | 39% | 24% | 72 % DMSO Ctrl |  | 98% | 100% | 10% |  |  | 13% |  | 90% |  |  |  |  |  |
| COc1ccc2c(c1)[nH]c1c(C)nc(CO)cc12 [Compound 2-8, (1-Methyl-7-methoxy-9H-pyrido[3,4-b]indol-3-yl)methanol] |  |  |  |  |  | 87 % DMSO Ctrl | 70% |  |  |  |  | 15% |  | 33% |  | 100% | 97% | 63% | 5% | 31% |
